US8481084B2, “Cholesterol-interacting layered phyllosilicates and methods of reducing hypercholesteremia in a mammal” (Amcol International Corporation, priority 2007, dated 2013)

Key:
[1] = system: New Zealand Male Rabbits fed a high cholesterol diet; assay: Plasma lipids in rabbits fed a high cholesterol diet, severe dyslipidemic model (Example 11); format: in vivo, New Zealand white rabbits
Method: Male New Zealand white rabbits ([…]; Control group [n=5], Simvastatin Group [n=4], Compound A Group [n=5], Compound B Group [n=5] and Compound C Group [n=5]) were housed in individual cages in a room with constant humidity and temperature (22° C.) under a 12 h light-dark cycle, and fed a standard diet for 7 days. After 7 days, animals were fed 10 g of a regular chow diet plus 100 g of the same diet supplemented with 0.5% (w/v) cholesterol and 14.0% (w/v) coconut oil for an additional 28 days. The final diet administered to these rabbits (following dilution of 100 g of high fat/cholesterol diet with 10 g of regular chow) consistent of 0.45% (w/v) cholesterol and 12.75% (w/v) coconut oil. […] The total plasma cholesterol, ApoB, HDL and triglyceride concentrations of the subjects prior to drug treatment is set forth in FIGS. 1-4, respectively.
For an additional 21 days (day 35 to day 56 of the study), a group of control animals (n=5) were maintained on the same diet (10 g regular chow diet plus 100 g of cholesterol/coconut diet) and four groups of animals were fed 100 g of cholesterol/coconut diet plus 10 g regular chow diet containing either simvastatin (3 mg/kg/day; n=4), Compound A (hydrogen protonated layered phyllosilicate material (prepared as described above in Example 2); 20 mg/kg/day; n=5), Compound B (layered phyllosilicate material with surface modified with lecithin prepared as described above in Example 5); 20 mg/kg/day; n=5) and Compound C (layered phyllosilicate material with surface acid treatment prepared as described above in Example 6) 20 mg/kg/day; n=5). Whole blood was collected (3 ml) prior to and 7, 14, and 21 days after initiation of treatment for plasma lipid determinations.
Plasma total cholesterol and triglyceride concentrations were directly quantified using enzymatic kits (Sigma Aldrich). HDL-cholesterol concentrations were determined using the dextran sulfate-Mg^2+ precipitation method as developed by Wamick et al. (9). The Friedewald equation for determining LDL cholesterol could not be used in this rabbit fed model (10). However, measurement of apoB cholesterol (which takes into account LDL-cholesterol) concentrations were determined by subtracting HDL-cholesterol concentrations from total cholesterol concentrations.
Statistical analysis: Results are expressed as mean±standard error of the mean (SEM). Statistical analyses were conducted using an analysis of variance (PCANOVA; Human Dynamic Systems) and assuming unequal variance (Newman Keuls post-hoc test; assuming unequal variance). Variables compared among treatment groups include, weight gain, total plasma cholesterol, total plasma triglyceride, HDL-cholesterol and ApoB-cholesterol. A p-value of less than 0.05 indicates a significant difference between treated and untreated groups.

[2] = system: intestinal cholesterol absorption; assay: Absorption of orally given [3H]cholesterol in rats, plasma AUC (Example 12); format: in vivo, male Sprague Dawley rats
Method: The following Example was performed to determine the bioavailability and pharmacokinetics of dietary cholesterol following oral administration of different layered phyllosilicate material compounds to male Sprague Dawley rats, using the methodology reported in Wassan et al. J. Pharmaceut. Sci., 90:23-28, 2001.
Preparation of cholesterol formulation: Commercially available 20% Intralipid® was diluted by external phase of emulsion to reach a triglyceride concentration of 10% v/v. Cold cholesterole as dissolved in 100% ethanol (1 mg/75 μl) and the solution was slowly added to the 10% Intralipid® with magnetic stirring. [^3H]cholesterol toluene solution (25 μl/ml) was then slowly added and then vortexed for 30 seconds. The formulation was then mixed by magnetic stirring for an additional 30 minutes until ready for administration. The final formulation contained 90% of the 10% Intralipid®, 7.5% ethanol and 2.5% toluene. The final concentrations of cold and radiolabeled cholesterol were 1 mg/ml and 25 μCi/ml, respectively.
Preparation of Ezetimibe Formulation: Commercially Available Ezetimibe Tablets were crushed and suspended in double distilled water to reach final ezetimibe concentration of 5 mg/ml. The suspension was briefly vortexed and then stirred using a magnetic stirrer for about 1 hour until ready for administration.
Preparation of the Stigmastanol Formulation: Stigmastanol was Pre-Wetted by Tween 80 (1% v/v final concentration) and suspended in 2% sodium carboxymethyl cellulose solution in double distilled water. The suspension was briefly vortexed for about 3 minutes, sonicated (Bransonic®3510) for 2 hours at ambient temperature and then stirred with a magnetic stirrer for 30 minutes until ready for administration. The final concentration of stigmastanol in the suspension was 25 mg/ml.
Experimental design: All rats used in this study were cared for in accordance with the principles promulgated by the Canadian Council on Animal Care and the University of British Columbia. Adult male Sprague Dawley rats (weighing approximately 350 g) were obtained from UBC animal care unit (Vancouver, B. C., Canada). The rats were maintained under a 12 hour light ([…])/dark cycle and supplied with a standard laboratory diet (PMI Feeds, Richmond, Va., USA) and water ad libitum. The right external jugular vein was cannulated with a two-part catheter consisting of PE 50 connected to a short length of 0.02 inch silastic tubing inserted 3.2 cm past the clavicle (Hauss et al., Contemp Top Lab Anim Sci., 37(3):56-58 1998). The jugular cannula was tunneled beneath the skin and exteriorized through a small stab wound in the back of the neck. The animals were outfitted with jacket-and-tether assemblies and placed in metabolism cages for the duration of the study.
Following completion of the surgical procedures, the animals were fasted overnight and permitted to recover for 16-20 hours. Free access to a drinking solution consisting of 5% glucose in lactated Ringer's solution was permitted postoperatively and throughout the study. The following treatment protocol was used. Following an overnight fast (12-16 hours), rats were divided into one of the following fourteen treatment groups and received a single-dose oral gavage (1 g Intralipid emulsion) at 0700 h of either:
All of test Compounds A, G, H, I, J, K, L or M were given as a separate slurry to the animal by oral gavage.
Following oral administration, serial blood samples were collected into EDTA-coated tubes predose and at 10 minutes predosing and at 0.5, 1, 2, 4, 6, 10, 24 28, 32 and 48 hours postdosing. The withdrawn blood was replaced by equal volume of normal saline to prevent hypovolemia. Rats remained fasted throughout the duration of blood sampling (12 h predosing+24 h postdosing=[…] total fasting). Plasma was obtained by centrifugation and analyzed for [^3H] cholesterol by radioactivity. […]

CCC(C)(C)C(=O)O[C@H]1C[C@@H](C)C=C2C=C[C@H](C)[C@H](CC[C@@H]3C[C@@H](O)CC(=O)O3)[C@H]21 [Simvastatin, simvastatin]
ApoB-Cholesterol, % C (percentage change from Day 35 to Day 56) ([1]; SVT 3 mg/kg/day, A, B, C 20 mg/kg/day, control +63%): −53% | Total Cholesterol, % C (percentage change from Day 35 to Day 56) ([1]; SVT 3 mg/kg/day, A, B, C 20 mg/kg/day, control +68%): −52% | Total Cholesterol, Day 35 ([1]; beginning of drug treatment (day 35), mean ± SEM, SVT 3 mg/kg/day, A, B, C 20 mg/kg/day): 1167 ± 276 mg/dL | ApoB-Cholesterol, Day 35 ([1]; beginning of drug treatment (day 35), total minus HDL cholesterol, mean ± SEM): 1092 ± 265 mg/dL | Total Cholesterol, Day 56 ([1]; end of drug treatment (day 56), mean ± SEM, SVT 3 mg/kg/day, A, B, C 20 mg/kg/day): 556 ± 122 mg/dL | ApoB-Cholesterol, Day 56 ([1]; end of drug treatment (day 56), total minus HDL cholesterol, mean ± SEM): 517 ± 121 mg/dL

O=C1[C@H](CC[C@H](O)c2ccc(F)cc2)[C@@H](c2ccc(O)cc2)N1c1ccc(F)cc1 [ezetimibe]
% of control group (AUC0-48 h) ([2]; 10 mg/kg): 8.6% | AUC0-48h (mean±SEM) ([2]; 10 mg/kg ezetimibe): 6940 ± 462 ng·h/mL | AUC0-48 h of cholesterol (mean ± SEM) ([2]; 10 mg/kg oral with [3H]cholesterol, control 80861 ± 5911): 6937 ± 462 ng·h/mL | inhibition of intestinal cholesterol absorption, in words ([2]; ezetimibe 10 mg/kg versus Compound A or stigmastanol 50 mg/kg): higher inhibition

CC[C@H](CC[C@@H](C)[C@H]1CC[C@H]2[C@@H]3CC[C@H]4C[C@@H](O)CC[C@]4(C)[C@H]3CC[C@]12C)C(C)C [stigmastanol]
% of control group (AUC0-48 h) ([2]; 50 mg/kg): 68.9% | AUC0-48 h of cholesterol (mean ± SEM) ([2]; 50 mg/kg oral with [3H]cholesterol): 55742 ± 3764 ng·h/mL
